Laboratory results from patent publication US5302602A, “Tricyclic thromboxane A2 antagonists” (Kyowa Hakko Kogyo Co., Ltd., priority 1987, dated 1994).
Where two headings read alike, the source gives them in different places.

What was measured:
TXA2 receptor = molecular target: T1, TXA2 receptor (Cavia porcellus, UniProt A0A286Y4I8); experiment: Binding study using 3H-U46619 (TXA2 receptor binding activities test); parameters: species or system guinea pig; details: 20 min; test compound 1 μM; 12 nM 3H-U46619; washed guinea pig platelets; 37° C., 20 minutes; read-out: % Inhibition (3H-U46619 binding)
T1 construct: To a washed platelet suspension (1×10^8 platelets) of guinea pig; endogenous in cells; host or cells: washed guinea pig platelets
T1 sequence (A0A286Y4I8 1-347): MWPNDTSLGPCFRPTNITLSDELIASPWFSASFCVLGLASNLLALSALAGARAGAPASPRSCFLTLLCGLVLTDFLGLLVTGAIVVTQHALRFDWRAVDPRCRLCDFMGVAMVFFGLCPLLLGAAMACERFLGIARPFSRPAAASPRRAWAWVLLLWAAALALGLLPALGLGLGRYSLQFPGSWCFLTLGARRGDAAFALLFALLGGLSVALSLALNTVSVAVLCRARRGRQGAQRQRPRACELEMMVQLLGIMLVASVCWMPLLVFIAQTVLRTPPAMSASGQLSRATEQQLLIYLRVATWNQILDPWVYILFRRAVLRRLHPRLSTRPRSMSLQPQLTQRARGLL
Method: Receptor binding was determined by a modified method of Kattelman et al. (Thrombosis Research, 41, 471 (1986)].
To a washed platelet suspension (1×10^8 platelets) of guinea pig were added 12 nM of tritium-labeled U46619 (^3 H-U46619; NEN Co., Ltd.) and a test compound (final concentration: 1 μM) solution. After keeping at 37° C. for 20 minutes, the mixture was rapidly filtered through a glass fiber filter paper (GF/C; Whatman). Immediately, the filter paper was washed 5 times with 3 ml of ice-cold 50 mM Tris-hydroxymethylaminomethane buffer (containing 100 mM sodium chloride). The glass fiber filter was transferred to a vial and a scintillator (Ex-H; manufactured by Wako Pure Chemical Industries Co., Ltd.) was added thereto. The radioactivity was determined with a liquid scintillation counter.
It is already known that ^3 H-U46619 is capable of binding with TXA2 receptor (see the publication supra). An inhibitory activity of the test compound against this binding means an ability of binding with the TXA2 receptor. It is also known that a good relationship exists between this binding activity and the anti-platelet activity (TXA2 antagonizing test).
An inhibitory activity (binding activity) of the test compound was calculated by the following equation. [formula]
Amount of the total binding is an amount of ^3 H-U46619-bound radioactivity in the absence of a test compound.
The amount of non-specific binding is used to mean an amount of ^3 H-U46619-bound radioactivity in the presence of 10 μM U-46619.
The amount bound in the presence of a test compound is an amount of ^3 H-U46619-bound radioactivity in the presence of a test compound in various concentrations.

histamine H1 receptor = molecular target: T2, histamine H1 receptor (Cavia porcellus, UniProt P31389); experiment: Binding study using 3H-pyrilamine (histamine H1 receptor binding); parameters: species or system guinea pig; details: read-out: (%) Inhibition (3H-pyrilamine binding)
T2 construct: from tissue; host or cells: guinea pig cerebellum membranes
Method: Receptor binding was determined by the method of chang et al. [J. Neurochem., 32, 1953 (1979)].
The cerebellum of guinea pig was suspended in a 40-fold amount (V/W) of chilled 50 mM phosphate buffer (pH 7.5) with Polytron Homogenizer (Kinematica Co., Ltd.). The suspension was centrifuged (35,500×g, 10 minutes). The resulting precipitates were resuspended in an equal amount of fresh buffer followed by centrifugation. A 100-fold amount (V/W) of chilled buffer was added to the final precipitates.
To 1 ml of the membrane suspension adjusted as described above were added 50 μl of tritium-labeled pyrilamine (^3 H-pyrilamine; NEN Co., Ltd.) and 50 μl of a test compound. The mixture was allowed to stand at 25° C. for 30 minutes, 4 ml of chilled buffer was added thereto. The mixture was rapidly filtered through a glass fiber filter (GF/C; Whatman). The filter paper was further washed three times with 5 ml of buffer. Hereafter procedures were performed in a manner similar to the TXA2 receptor binding test to determine radioactivity.
An inhibitory activity of the test compound against H1 receptor was calculated by the following equation. [formula]
Amount of the total binding is an amount of ^3 H-pyrilamine-bound radioactivity in the absence of a test compound.
The amount of non-specific binding is an amount of ^3 H-pyrilamine-bound radioactivity in the presence of 3 μM Astemizole (manufactured by Janesen Pharmaceutics).
The amount bound in the presence of a test compound is an amount of ^3 H-pyrilamine-bound radioactivity in the presence of a test compound in various concentrations.

mice = experiment: Acute toxicity test; format: in vivo; details: mortality observed for seven days
Method: Using three dd strain male mice weighing 20±1 g, a test compound was orally (po; 300 mg/kg) or intraperitoneally (ip; 100 mg/kg) administered. MLD (the minimum lethal dose) was determined by observing the mortality for seven days after administration.

[1] = test system: homologous passive cutaneous anaphylaxis (PCA); experiment: Antiallergic activity test: homologous passive cutaneous anaphylaxis (PCA) test for 48 hours using rats; format: in vivo, rat (Wistar strain, male); details: Rattus norvegicus, po, minimum dose with at least one of 3 rats showing PCA inhibition rate 50% or more, read-out: Antiallergic Activity (MED), minimum effective dose
Method: Antiallergic activity was examined in accordance with the passive cutaneous anaphylaxis (PCA) test using rats. As test animals, Wistar strain male rats weighing 180 to 220 g were used to collect antiserum and for the PCA test, Wistar strain male rats weighing 120 to 140 g were used.
Anti-EWA rat serum was prepared according to the method of Stotland and Share [Can. J. Physiol. Pharmacol., 52, 1114 (1974)]. That is, 1 mg of EWA was mixed with 20 mg of aluminum hydroxide gel and 0.5 ml of pertussis-diphtberia-tetanus mixed vaccine. The mixture was subcutaneously administered to the rat paw in 4 portions. Fourteen days after, blood was collected from the carotid artery and the serum was isolated and stored in a state frozen at -80° C. Titer of this antiserum to homologous PCA for 48 hours was 1:32.
Three rats were used per group. After the hair at the back was cut, 0.05 ml each of anti-EWA rat serum diluted to 8-fold with physiological saline was intracutaneously injected to each rat at the back in 2 places to passively sensitize the rat. A test compound or its solution (physiological saline solution or CMC solution) was orally administered 47 hours after and 0.5 ml/100 g of 1% Evans Blue physiological saline containing 2 mg of antigen EWA was then intravenously administered to the tail vein an hour after the administration. Thirty minutes later, the animal was bled to death. The skin was peeled off and a leaked dye amount at the blue dyed portion was measured according to the method of Katayama et al. [Microbiol. Immunol., 22, 89 (1978)]. That is, the blue dyed portion was cut off with scissors, put into a test tube charged with 1 ml of 1 N potassium hydroxide and incubated at 37° C. for 24 hours. After 9 ml of a mixture of 0.6 N phosphate:acetone (5:13) was added to the system, the mixture was shaken followed by centrifugation at 2500 rpm for 10 minutes. The absorbancy of the supernatant at 620 nm was measured and the leaked dye amount was quantitatively determined by comparison with a calibration curve previously prepared. A value of one rat was obtained from a mean value of the two portions and an inhibition rate-of each rat was calculated according to the following equation. [formula]
The case showing that the inhibition rate is 50% or more is judged to be positive in the PCA inhibition activity and the minimum dose in which at least one out of 3 rats was recognized to be positive was defined as the minimum effective dose (MED) of the test compound.

[2] = test system: guinea pig platelets (TXA2/prostaglandin H2 receptor); experiment: Test on anti-platelet activity (TXA2 antagonizing test): inhibition of U-46619-induced platelet aggregation; format: cell-based; details: Cavia porcellus, 0.05 h; minimum concentration inhibiting U-46619 (0.5-1 μM)-induced platelet aggregation by 30% or more; guinea pig PRP; read-out: TXA2 Antagonizing Activity (MEC), minimum effective concentration
Method: Using guinea pig platelets influence of the compounds in accordance with the present invention on platelet aggregation induced by U-46619 (9,11-dideoxy-9α,11a-methanoepoxyprostaglandin F2 α; manufactured by Cayman Chemica Co., Ltd.) which is a TXA2 /prostaglandin H2 receptor stimulant was examined.
Male guinea pig (Hartley strain; body weight, 300 to 600 g) was anesthesized by intraperitoneal administration of sodium pentobarbital (30 mg/kg) and blood was collected from the descending aorta of the abdomen with a 1/10 volume of sodium citrate. By centrifugation (KC-70: manufactured by Kubota Co., Ltd.) at 800 rpm for 10 minutes, platelet rich plasma (PRP) was collected. Platelet aggregation induced by U-46619 (0.5-1 μM) was determined by photometry [Born, G.V.R. et al., Nature (London), 194, 927-929 (1962)]. A test compound was pretreated 3 minutes prior to aggregation induction and ability of inhibiting aggregation was measured. The minimum concentration for inhibiting platelet aggregation by 30% or more was defined as the minimum effective concentration (MEC) of the test compound.

T2 sequence (P31389 whole entry): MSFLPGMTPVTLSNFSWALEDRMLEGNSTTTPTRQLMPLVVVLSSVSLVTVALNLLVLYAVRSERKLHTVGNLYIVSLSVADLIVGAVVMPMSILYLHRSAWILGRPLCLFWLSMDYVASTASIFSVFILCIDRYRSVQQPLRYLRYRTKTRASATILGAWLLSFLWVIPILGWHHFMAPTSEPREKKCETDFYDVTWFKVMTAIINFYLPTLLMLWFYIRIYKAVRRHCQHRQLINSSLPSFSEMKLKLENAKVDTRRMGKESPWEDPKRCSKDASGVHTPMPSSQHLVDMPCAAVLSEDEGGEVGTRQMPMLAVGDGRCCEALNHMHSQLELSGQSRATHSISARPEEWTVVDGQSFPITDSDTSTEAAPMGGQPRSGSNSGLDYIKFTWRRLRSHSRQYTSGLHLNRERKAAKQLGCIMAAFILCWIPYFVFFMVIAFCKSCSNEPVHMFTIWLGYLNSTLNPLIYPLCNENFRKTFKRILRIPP

Structure (SMILES)	inhibition at 1 µM (TXA2 receptor)	inhibition at 1 µM (histamine H1 receptor; test compound 10^-6 M, guinea pig cerebellum membranes, 25° C., 30 minutes)	Acute Toxicity (MLD), minimum lethal dose (mice; ip)	Acute Toxicity (MLD), minimum lethal dose (mice; po)	minimal effective dose [1]	minimal effective concentration [2]	inhibition at 1 µM (histamine H1 receptor)
O=C(O)COc1ccc(CCNS(=O)(=O)c2ccccc2)cc1 [BM13177, reference compound]	31%	0%	> 100 mg/kg	> 300 mg/kg	> 100 mg/kg	3 µg/mL	
O=C(O)c1ccc2c(c1)C(SCCN1CCN(Cc3ccccc3)CC1)c1ccccc1CO2 (stereo not drawn) [Compound 11b, 11-[2-(4-Benzyl-1-piperazinyl)ethyl]thio-6,11-dihydrodibenz[b,e]oxepin-2-carboxylic acid]	70%		> 100 mg/kg	> 300 mg/kg	10 mg/kg	1 µg/mL	95%
O=C(O)c1ccc2c(c1)C(SCCN1CCN(S(=O)(=O)c3cccs3)CC1)c1ccccc1CO2 (stereo not drawn) [Compound 25b, 11-[2-[4-(2-Thienylsulfonyl)-1-piperazinyl]ethyl]thio-6,11-dihydrodibenz[b,e]oxepin-2-carboxylic acid.0.5 isopropanol.dihydrate]	78%		> 100 mg/kg	> 300 mg/kg	10 mg/kg	3 µg/mL	95%
